Test [1] relates to U937 human histiocytic lymphoma cells. The conditions noted are these: cited from earlier work.
Test [2] concerns TNFα secretion from U937 cells. Description: TNFα secretion from U937 cells. Type of test: cell-based, human. To be noted: treatment for 60 hours.
In test [3] the test system is U937 human histiocytic lymphoma cells. To be noted: cited from earlier work. This is another data set of the same source.
In test [4] the test system is Toledo cells. Description: Toledo cell growth assay. Type of test: cell-based.

In the case of `COC(=O)/C=C1\C[C@H]2C[C@]3(O)O[C@H](C[C@@H](O)CC(=O)O[C@@H](C)[C@H](O)C[C@@H]4C[C@@H]5CC(=O)O[C@]5(O4)C(=O)C(C)(C)/C=C/[C@@H](C1)O2)C[C@H](OC(=O)C(C)(C)C)C3(C)C` [Neristatin 1], the “behavior in U937 promyelocytic leukemia cells” value in test [1] is reported as “bryostatin 1-like behavior”.
Take `CCCCCCCCCCCCCC(=O)O[C@@H]1[C@@H](C)[C@@]2(O)[C@@H](C=C(CO)C[C@]3(O)C(=O)C(C)=C[C@@H]23)[C@@H]2C(C)(C)[C@]12OC(C)=O` [PMA, phorbol 12-myristate 13-acetate]: the TNFα secretion result in test [2] was “induces secretion in a dose-dependent manner”. Moreover, the “effect on proliferation of U937 cells” value in test [1] was “inhibits the proliferation”. Further, in test [3], the “effect on attachment of U937 cells” value was “promotes attachment”. Moreover, the “growth inhibition of Toledo cells” value in test [4] is given as “induce antiproliferative responses”.
In the case of `CCC/C=C/C=C/C(=O)O[C@H]1/C(=C/C(=O)OC)C[C@H]2C[C@H]([C@@H](C)O)OC(=O)C[C@H](O)C[C@@H]3C[C@H](OC(C)=O)C(C)(C)[C@](O)(C[C@@H]4C/C(=C/C(=O)OC)C[C@H](/C=C/C(C)(C)[C@]1(O)O2)O4)O3` [bryostatin 1], in test [2], the TNFα secretion entry was “little effect”. The “effect on proliferation of U937 cells” value in test [1] is “little response”. In addition, the “effect on attachment of U937 cells” value in test [3] is given as “little response”. In test [4], the “growth inhibition of Toledo cells” value was “induce antiproliferative responses”.

The values are drawn from PMC5094189 (Journal of the American Chemical Society, 2016).
